Reference: patent US8852860B2, “Sperm-specific cation channel, CatSper1 and uses therefor” (Children's Medical Center Corporation, priority 2001, dated 2014)

Tests used:
[1] = tested on: CatSper1^−/− sperm; experiment: Ca2+ imaging of Fluo-4 loaded sperm, CatSper1-/- mutant; type: cell-based, mouse
Experimental: (§1) For Ca^2+ imaging, sperm were prepared in HS medium (Wennemuth, et al. (2000), J Biol Chem 275, 21210-7) and loaded with 10 μM Fluo-4-AM and 0.05% Pluronic F-127 for 30 min. at room temperature. Washed cells were seeded onto Cell-Tak coated cover slips. Attached motile sperm were imaged in nonconfocal mode to avoid motion-induced fluorescence change artifacts. The 488 nm wavelength beam of an Argon-Krypton laser was used for excitation and fluorescence emission was collected at 512 nm (Zeiss LSM 410).
(§2) Wild-type and mutant sperm were loaded with Fluo-4 and their fluorescence measured by single photon confocal microscopy.

[2] = tested on: caudal epididymal wild-type sperm; experiment: Ca2+ imaging of Fluo-4 loaded sperm, wild-type; type: cell-based, mouse
Experimental: as §1, §2

In the case of Nc1nc2c(nc(Br)n2[C@@H]2O[C@@H]3COP(=O)(O)O[C@H]3[C@H]2O)c(=O)[nH]1 [8-Br-cGMP], the “cyclic nucleotide-induced Ca^2+ influx in mutant sperm” value [1] is reported as “neither cAMP nor cGMP elicited significant Ca^2+ influx” and the “sperm head and tail [Ca^2+]i change (Fluo-4 fluorescence)” value ([2]; wild-type sperm, 1 mM membrane-permeant cyclic nucleotide in bath) is reported as “initiated Ca^2+ influx in sperm”.
For CC(=O)[C@H]1CC[C@H]2[C@@H]3CCC4=CC(=O)CC[C@]4(C)[C@H]3CC[C@]12C [progesterone], the “Ca^2+ influx (control for dye loading), mutant sperm” value [1] was “initiated a large Ca^2+ influx” and the “Ca^2+ influx (control for dye loading), wild-type sperm” value ([2]; wild-type sperm) was “initiated a large Ca^2+ influx”.
With O=C([O-])O.[Na+] [sodium bicarbonate] the “[Ca^2+]i increase on addition to the bath” value ([2]; 20 mM in bath) was “induced an increase in [Ca^2+]i that was smaller than that observed with cyclic AMP or GMP”.
For CN[C@@H]1C[C@H]2O[C@@](C)([C@@H]1OC)n1c3ccccc3c3c4c(c5c6ccccc6n2c5c31)C(=O)NC4 [staurosporine], the “block of cyclic AMP and cyclic GMP induced [Ca^2+]i increase” value ([2]; sperm incubated with 1 μM, 10 minutes) was “not blocked”.
